Laboratory results taken from patent US9409905B2, “Antibacterial compounds and methods for use” (PTC THERAPEUTICS, INC., priority 2011, dated 2016).
≈ marks a conversion by molar mass, not a printed value.

Tests used:
[1] = test system: Pseudomonas aeruginosa (P. aeruginosa) 27853; experiment: Antibacterial activity, MIC (Table 5); assay type: cell-based; conditions: P. aeruginosa 27853, read-out: MIC, 27853
In short: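 Microbroth dilution; MIC (μg/mL) = lowest concentration with no macroscopically visible growth.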

E. coli LZ3111 = experiment: Antibacterial activity, MIC, quinolone resistant strain (Table 2); assay type: cell-based; conditions: Escherichia coli, LZ3111, read-out: MIC LZ3111
In short: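 Broth microdilution. Read-out: MIC in μg/mL, taken as lowest concentration with no macroscopically visible growth.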

E. coli ELZ4000 = experiment: Antibacterial activity, MIC, multi-drug resistant clinical isolate (Table 3); assay type: cell-based; conditions: Escherichia coli, ELZ4000, read-out: MIC ELZ4000
Excerpt: (§1) The antibacterial activity from a microbroth dilution method may be presented as the minimum inhibitory concentration (MIC in μg/mL). The MIC value is the lowest concentration of drug which prevents macroscopically visible growth under test conditions.
(§2) Antibacterial activity of test compounds against E. coli ELZ4000 and E. coli ELZ4251 multi-drug resistant clinical isolates is shown in Table 3.

E. coli ELZ4251 = experiment: as above; assay type: cell-based; conditions: Escherichia coli
Excerpt: as §1, §2

[2] = test system: Staphylococcus aureus (S. aureus) 29213; experiment: Antibacterial activity, microbroth dilution MIC (Table 1); assay type: cell-based; conditions: microbroth dilution, Gram-positive S. aureus 29213, read-out: MIC, 29213
In short: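 Each strain is exposed to test compound in a microbroth dilution series; visible growth is scored macroscopically, and the lowest growth-free concentration is recorded as MIC in μg/mL.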

[3] = test system: Escherichia coli (E. coli) BAS849; experiment: as above; assay type: cell-based; conditions: microbroth dilution, super sensitive Gram-negative E. coli BAS849, read-out: MIC, BAS849
In short: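 MIC (μg/mL) is taken as the lowest concentration with no macroscopically visible growth. Strains tested by microbroth dilution: Gram-positive S. aureus 29213, control Gram-negative E. coli 25922, and super-sensitive E. coli BAS849.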

E. coli 25922 = experiment: as above; assay type: cell-based, Escherichia coli; conditions: Escherichia coli; microbroth dilution; control Gram-negative E. coli 25922 strain; read-out: MIC, 25922
In short: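 Broth microdilution; endpoint = no macroscopic growth; value = lowest inhibiting concn, μg/mL.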

A. baumannii MXX2240 = experiment: Antibacterial activity, MIC, resistant strain (Table 4); assay type: cell-based; conditions: Acinetobacter baumannii, MXX2240; resistant A. baumannii MMX2240, multi-drug resistant clinical isolate; read-out: MIC, MMX2240
In short: (§3)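 Values are minimum inhibitory concentrations in μg/mL from broth microdilution, meaning no macroscopically visible growth at that concentration. Resistant MXX isolates are multi-drug resistant clinical strains.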

K. pneumoniae MXX1232 = experiment: as above; assay type: cell-based; conditions: Klebsiella pneumoniae, MXX1232; resistant K. pneumoniae MMX1232, multi-drug resistant clinical isolate; read-out: MIC, MMX1232
In short: as §3

[4] = test system: Acinetobacter baumannii (A. baumannii) BAA747; experiment: Antibacterial activity, MIC (Table 4); assay type: cell-based; conditions: A. baumannii BAA747, read-out: MIC, BAA747
In short: as §3

[5] = test system: Klebsiella pneumoniae (K. pneumoniae) 35657; experiment: Antibacterial activity, MIC (Table 4); assay type: cell-based; conditions: K. pneumoniae 35657, read-out: MIC, 35657
In short: as §3

Structure (SMILES) | MIC [1] | MIC (E. coli LZ3111) | MIC (E. coli ELZ4000) | MIC (E. coli ELZ4251) | MIC [2] | MIC [3] | MIC (E. coli 25922) | MIC (A. baumannii MXX2240) | MIC (K. pneumoniae MXX1232) | MIC [4] | MIC [5]
CCc1c(-c2ccc3c(c2)cc(CN(C)C2CCNCC2)n3C)[nH]c(=O)c(C(=O)O)c1O [Cpd 261, 5-ethyl-4-hydroxy-6-(1-methyl-2-((methyl(piperidin-4-yl)amino)methyl)-1H-indol-5-yl)-2-oxo-1,2-dihydropyridine-3-carboxylic acid] | 12.5 to 150 µg/mL (≈ 28.5 to 342 µM) | 3.5 to 12.5 µg/mL (≈ 7.98 to 28.5 µM) | 12.5 to 150 µg/mL (≈ 28.5 to 342 µM) | 12.5 to 150 µg/mL (≈ 28.5 to 342 µM) | 12.5 to 150 µg/mL (≈ 28.5 to 342 µM) | 1 to 3.5 µg/mL (≈ 2.28 to 7.98 µM) | 3.5 to 12.5 µg/mL (≈ 7.98 to 28.5 µM) | – | – | – | –
CCc1c(-c2ccc3c(c2)cc(CN(C)C2CCCNC2)n3C)[nH]c(=O)c(C(=O)O)c1O (stereo not drawn) [Cpd 262, 5-ethyl-4-hydroxy-6-(1-methyl-2-((methyl(piperidin-3-yl)amino)methyl)-1H-indol-5-yl)-2-oxo-1,2-dihydropyridine-3-carboxylic acid] | 12.5 to 150 µg/mL (≈ 28.5 to 342 µM) | 3.5 to 12.5 µg/mL (≈ 7.98 to 28.5 µM) | 12.5 to 150 µg/mL (≈ 28.5 to 342 µM) | 12.5 to 150 µg/mL (≈ 28.5 to 342 µM) | 12.5 to 150 µg/mL (≈ 28.5 to 342 µM) | 1 to 3.5 µg/mL (≈ 2.28 to 7.98 µM) | 3.5 to 12.5 µg/mL (≈ 7.98 to 28.5 µM) | – | – | – | –
CCCCCCCCNCc1cc2cc(-c3[nH]c(=O)c(C(=O)O)c(O)c3CC)ccc2n1C [Cpd 337, 5-ethyl-4-hydroxy-6-(1-methyl-2-((octylamino)methyl)-1H-indol-5-yl)-2-oxo-1,2-dihydropyridine-3-carboxylic acid] | 12.5 to 150 µg/mL (≈ 27.6 to 331 µM) | 3.5 to 12.5 µg/mL (≈ 7.72 to 27.6 µM) | – | 12.5 to 150 µg/mL (≈ 27.6 to 331 µM) | 1 to 3.5 µg/mL (≈ 2.2 to 7.72 µM) | < 1 µg/mL | 12.5 to 150 µg/mL (≈ 27.6 to 331 µM) | 12.5 to 150 µg/mL (≈ 27.6 to 331 µM) | 12.5 to 150 µg/mL (≈ 27.6 to 331 µM) | 12.5 to 150 µg/mL (≈ 27.6 to 331 µM) | 12.5 to 150 µg/mL (≈ 27.6 to 331 µM)
CCCCCCCCCNCc1cc2cc(-c3[nH]c(=O)c(C(=O)O)c(O)c3CC)ccc2n1C [Cpd 338, 5-ethyl-4-hydroxy-6-(1-methyl-2-((nonylamino)methyl)-1H-indol-5-yl)-2-oxo-1,2-dihydropyridine-3-carboxylic acid] | 12.5 to 150 µg/mL (≈ 26.7 to 321 µM) | 12.5 to 150 µg/mL (≈ 26.7 to 321 µM) | – | 12.5 to 150 µg/mL (≈ 26.7 to 321 µM) | 3.5 to 12.5 µg/mL (≈ 7.48 to 26.7 µM) | 1 to 3.5 µg/mL (≈ 2.14 to 7.48 µM) | 12.5 to 150 µg/mL (≈ 26.7 to 321 µM) | 12.5 to 150 µg/mL (≈ 26.7 to 321 µM) | 12.5 to 150 µg/mL (≈ 26.7 to 321 µM) | 12.5 to 150 µg/mL (≈ 26.7 to 321 µM) | 12.5 to 150 µg/mL (≈ 26.7 to 321 µM)
CCc1c(-c2ccc3c(c2)c(C#N)c(OC)n3C)[nH]c(=O)c(C(=O)O)c1O [Cpd 362, 6-(3-cyano-2-methoxy-1-methyl-1H-indol-5-yl)-5-ethyl-4-hydroxy-2-oxo-1,2-dihydropyridine-3-carboxylic acid] | 12.5 to 150 µg/mL (≈ 34 to 408 µM) | 12.5 to 150 µg/mL (≈ 34 to 408 µM) | – | 12.5 to 150 µg/mL (≈ 34 to 408 µM) | 3.5 to 12.5 µg/mL (≈ 9.53 to 34 µM) | 1 to 3.5 µg/mL (≈ 2.72 to 9.53 µM) | 12.5 to 150 µg/mL (≈ 34 to 408 µM) | 12.5 to 150 µg/mL (≈ 34 to 408 µM) | 12.5 to 150 µg/mL (≈ 34 to 408 µM) | 12.5 to 150 µg/mL (≈ 34 to 408 µM) | 12.5 to 150 µg/mL (≈ 34 to 408 µM)
CCc1cc(C(=O)O)c(=O)[nH]c1-c1ccc2occc2c1 [Cpd 364, 6-(benzofuran-5-yl)-5-ethyl-2-oxo-1,2-dihydropyridine-3-carboxylic acid] | 12.5 to 150 µg/mL (≈ 44.1 to 530 µM) | 12.5 to 150 µg/mL (≈ 44.1 to 530 µM) | – | 12.5 to 150 µg/mL (≈ 44.1 to 530 µM) | 12.5 to 150 µg/mL (≈ 44.1 to 530 µM) | 1 to 3.5 µg/mL (≈ 3.53 to 12.4 µM) | 12.5 to 150 µg/mL (≈ 44.1 to 530 µM) | 12.5 to 150 µg/mL (≈ 44.1 to 530 µM) | 12.5 to 150 µg/mL (≈ 44.1 to 530 µM) | 12.5 to 150 µg/mL (≈ 44.1 to 530 µM) | 12.5 to 150 µg/mL (≈ 44.1 to 530 µM)
CCc1c(-c2ccc3occc3c2)[nH]c(=O)c(C(=O)O)c1O [Cpd 365, 6-(benzofuran-5-yl)-5-ethyl-4-hydroxy-2-oxo-1,2-dihydropyridine-3-carboxylic acid] | 12.5 to 150 µg/mL (≈ 41.8 to 501 µM) | 3.5 to 12.5 µg/mL (≈ 11.7 to 41.8 µM) | – | 3.5 to 12.5 µg/mL (≈ 11.7 to 41.8 µM) | 3.5 to 12.5 µg/mL (≈ 11.7 to 41.8 µM) | < 1 µg/mL | 12.5 to 150 µg/mL (≈ 41.8 to 501 µM) | 1 to 3.5 µg/mL (≈ 3.34 to 11.7 µM) | 12.5 to 150 µg/mL (≈ 41.8 to 501 µM) | 12.5 to 150 µg/mL (≈ 41.8 to 501 µM) | 12.5 to 150 µg/mL (≈ 41.8 to 501 µM)
CCc1cc(C(=O)O)c(=O)[nH]c1-c1ccc2sccc2c1 [Cpd 366, 6-(benzo[b]thiophen-5-yl)-5-ethyl-2-oxo-1,2-dihydropyridine-3-carboxylic acid] | 12.5 to 150 µg/mL (≈ 41.8 to 501 µM) | 12.5 to 150 µg/mL (≈ 41.8 to 501 µM) | – | 12.5 to 150 µg/mL (≈ 41.8 to 501 µM) | 12.5 to 150 µg/mL (≈ 41.8 to 501 µM) | < 1 µg/mL | 3.5 to 12.5 µg/mL (≈ 11.7 to 41.8 µM) | 12.5 to 150 µg/mL (≈ 41.8 to 501 µM) | 12.5 to 150 µg/mL (≈ 41.8 to 501 µM) | 12.5 to 150 µg/mL (≈ 41.8 to 501 µM) | 12.5 to 150 µg/mL (≈ 41.8 to 501 µM)
CCc1c(-c2ccc3sccc3c2)[nH]c(=O)c(C(=O)O)c1O [Cpd 367, 6-(benzo[b]thiophen-5-yl)-5-ethyl-4-hydroxy-2-oxo-1,2-dihydropyridine-3-carboxylic acid] | 12.5 to 150 µg/mL (≈ 39.6 to 476 µM) | 3.5 to 12.5 µg/mL (≈ 11.1 to 39.6 µM) | – | 12.5 to 150 µg/mL (≈ 39.6 to 476 µM) | 1 to 3.5 µg/mL (≈ 3.17 to 11.1 µM) | < 1 µg/mL | 12.5 to 150 µg/mL (≈ 39.6 to 476 µM) | 3.5 to 12.5 µg/mL (≈ 11.1 to 39.6 µM) | 12.5 to 150 µg/mL (≈ 39.6 to 476 µM) | 12.5 to 150 µg/mL (≈ 39.6 to 476 µM) | 12.5 to 150 µg/mL (≈ 39.6 to 476 µM)
